Residual activity data for six compounds are collected here from ChEMBL document CHEMBL1268952, “Design, synthesis, and evaluation of indolinones as inhibitors of the transforming growth factor β receptor I (TGFβRI)” (J Med Chem, 2010).

Test [1] concerns the target Mitogen-activated protein kinase 8 (Homo sapiens) (UniProt P45983). Description: Inhibition of SAPK1c at 2 uM.
Test [2] can be described thus: Inhibition of PKB at 1 uM; values are per cent of control.
Test [3] can be described thus: Inhibition of PKA at 1 uM; values are per cent of control.
The target of test [4] is T1, Lymphokine-activated killer T-cell-originated protein kinase (Homo sapiens) (UniProt Q96KB5).
T1 sequence (whole entry): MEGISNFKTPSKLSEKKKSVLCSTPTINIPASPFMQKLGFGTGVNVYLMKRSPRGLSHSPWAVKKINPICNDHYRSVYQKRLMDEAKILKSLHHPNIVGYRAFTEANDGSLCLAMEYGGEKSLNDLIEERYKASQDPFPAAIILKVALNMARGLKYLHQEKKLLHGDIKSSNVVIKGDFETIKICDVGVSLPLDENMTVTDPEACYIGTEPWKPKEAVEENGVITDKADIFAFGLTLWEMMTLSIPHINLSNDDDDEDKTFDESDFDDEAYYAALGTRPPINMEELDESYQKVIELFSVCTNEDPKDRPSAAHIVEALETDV
The experiment in a line: Inhibition of PBK at 1 uM; values are per cent of control.

A short description of test [5]: Inhibition of CK2 at 1 uM; values are per cent of control.
The target in test [6] is Tyrosine-protein kinase CSK (Homo sapiens) (UniProt P41240). Description: Inhibition of CSK at 1 uM; values are per cent of control.
Test [7] is described as follows: Inhibition of CK1 at 1 uM; values are per cent of control.
Test [8] concerns the target T2, MAP kinase-activated protein kinase 5 (Homo sapiens) (UniProt Q8IW41).
T2 sequence (whole entry): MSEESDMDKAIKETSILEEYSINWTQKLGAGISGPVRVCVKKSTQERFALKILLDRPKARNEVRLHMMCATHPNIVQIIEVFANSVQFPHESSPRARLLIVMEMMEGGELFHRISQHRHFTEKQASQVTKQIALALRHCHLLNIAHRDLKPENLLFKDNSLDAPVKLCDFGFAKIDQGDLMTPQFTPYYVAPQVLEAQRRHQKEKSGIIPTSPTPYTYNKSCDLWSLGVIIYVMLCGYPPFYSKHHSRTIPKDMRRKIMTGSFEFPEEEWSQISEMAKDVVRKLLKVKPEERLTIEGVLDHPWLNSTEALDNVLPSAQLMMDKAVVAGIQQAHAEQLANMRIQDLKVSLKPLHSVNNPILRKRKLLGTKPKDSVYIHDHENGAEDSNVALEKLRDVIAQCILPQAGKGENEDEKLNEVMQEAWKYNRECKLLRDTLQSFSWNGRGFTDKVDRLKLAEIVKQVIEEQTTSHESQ
The experiment in a line: Inhibition of PRAK at 1 uM; values are per cent of control.

For test [9], the target named is Ribosomal protein S6 kinase alpha-5 (Homo sapiens) (UniProt O75582). The experiment in a line: Inhibition of MSK1 at 1 uM; values are per cent of control.
In test [10] the target is T3, Serine/threonine-protein kinase Chk1 (Homo sapiens) (UniProt O14757).
T3 sequence (whole entry): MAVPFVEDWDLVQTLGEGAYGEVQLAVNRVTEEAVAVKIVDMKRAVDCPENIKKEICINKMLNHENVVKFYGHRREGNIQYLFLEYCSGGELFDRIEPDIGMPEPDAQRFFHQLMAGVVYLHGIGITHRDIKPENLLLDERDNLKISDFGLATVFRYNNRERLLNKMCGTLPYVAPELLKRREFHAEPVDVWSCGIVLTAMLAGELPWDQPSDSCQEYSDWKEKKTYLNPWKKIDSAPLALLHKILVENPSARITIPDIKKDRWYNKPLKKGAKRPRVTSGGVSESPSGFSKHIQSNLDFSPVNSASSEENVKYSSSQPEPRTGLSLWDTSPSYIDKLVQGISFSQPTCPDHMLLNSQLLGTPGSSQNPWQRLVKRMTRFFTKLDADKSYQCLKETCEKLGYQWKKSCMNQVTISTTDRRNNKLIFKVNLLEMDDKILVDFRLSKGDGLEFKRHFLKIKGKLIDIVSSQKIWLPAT
The experiment in a line: Inhibition of CHK1 at 1 uM; values are per cent of control.

Test [11] can be described thus: Inhibition of AMPK at 1 uM; values are per cent of control.
The target of test [12] is Rho-associated protein kinase 2 (Homo sapiens) (UniProt O75116). The experiment in a line: Inhibition of ROCK2 at 1 uM; values are per cent of control.
In test [13] the target is T4, Serine/threonine-protein kinase Nek2 (Homo sapiens) (UniProt P51955).
T4 sequence (whole entry): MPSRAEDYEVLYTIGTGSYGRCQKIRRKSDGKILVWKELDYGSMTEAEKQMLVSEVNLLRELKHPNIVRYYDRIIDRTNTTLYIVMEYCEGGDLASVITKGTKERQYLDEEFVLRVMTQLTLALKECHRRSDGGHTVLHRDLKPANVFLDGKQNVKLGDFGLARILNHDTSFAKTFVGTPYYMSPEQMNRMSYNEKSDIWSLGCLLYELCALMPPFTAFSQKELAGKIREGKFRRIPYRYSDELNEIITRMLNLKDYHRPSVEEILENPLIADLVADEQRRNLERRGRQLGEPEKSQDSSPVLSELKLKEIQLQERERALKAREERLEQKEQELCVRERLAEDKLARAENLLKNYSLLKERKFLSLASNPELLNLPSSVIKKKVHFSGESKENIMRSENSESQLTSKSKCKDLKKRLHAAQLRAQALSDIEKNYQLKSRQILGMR
The experiment in a line: Inhibition of NEK2A at 1 uM; values are per cent of control.

For test [14], the target named is Dual specificity mitogen-activated protein kinase kinase 1 (Homo sapiens) (UniProt Q02750). The experiment in a line: Inhibition of MKK1A at 1 uM; values are per cent of control.
For test [15], the target named is Dual specificity tyrosine-phosphorylation-regulated kinase 1A (Homo sapiens) (UniProt Q13627). Description: Inhibition of DYRK1A at 1 uM; values are per cent of control.
In test [16] the target is Protein kinase C alpha type (Homo sapiens) (UniProt P17252). The experiment in a line: Inhibition of PKCalpha at 1 uM; values are per cent of control.
Test [17] has as its target Glycogen synthase kinase-3 beta (Homo sapiens) (UniProt P49841). The experiment in a line: Inhibition of GSK3-beta at 1 uM; values are per cent of control.
The target of test [18] is Cyclin-dependent kinase 2/cyclin A (Homo sapiens) (UniProt P24941+P20248+P78396). Description: Inhibition of CDK2/cyclin A at 1 uM; values are per cent of control.

Structures are written as SMILES.

Sequence of Ribosomal protein S6 kinase alpha-5 (Homo sapiens) (O75582 whole entry, looked up): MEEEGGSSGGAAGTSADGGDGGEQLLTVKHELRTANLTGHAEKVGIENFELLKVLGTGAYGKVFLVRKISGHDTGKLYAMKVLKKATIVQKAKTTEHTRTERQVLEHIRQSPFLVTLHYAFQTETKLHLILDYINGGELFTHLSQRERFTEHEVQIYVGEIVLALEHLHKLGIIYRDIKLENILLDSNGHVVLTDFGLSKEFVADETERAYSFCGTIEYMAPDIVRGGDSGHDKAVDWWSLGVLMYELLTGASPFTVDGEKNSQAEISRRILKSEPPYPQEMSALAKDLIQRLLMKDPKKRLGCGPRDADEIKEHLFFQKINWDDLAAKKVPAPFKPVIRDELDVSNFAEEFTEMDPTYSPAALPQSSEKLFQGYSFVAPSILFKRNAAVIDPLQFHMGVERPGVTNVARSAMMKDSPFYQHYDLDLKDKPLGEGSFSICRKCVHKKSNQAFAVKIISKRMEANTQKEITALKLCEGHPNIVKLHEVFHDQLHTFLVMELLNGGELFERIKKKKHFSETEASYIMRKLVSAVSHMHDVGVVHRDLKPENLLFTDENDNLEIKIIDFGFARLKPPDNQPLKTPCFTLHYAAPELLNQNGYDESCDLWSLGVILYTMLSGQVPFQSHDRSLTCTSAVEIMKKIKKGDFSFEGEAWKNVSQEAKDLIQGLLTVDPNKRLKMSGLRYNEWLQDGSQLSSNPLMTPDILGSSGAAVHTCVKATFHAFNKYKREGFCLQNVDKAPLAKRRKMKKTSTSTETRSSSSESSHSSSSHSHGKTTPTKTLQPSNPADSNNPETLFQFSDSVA
Sequence of Tyrosine-protein kinase CSK (Homo sapiens) (P41240 2-450 limits assumed): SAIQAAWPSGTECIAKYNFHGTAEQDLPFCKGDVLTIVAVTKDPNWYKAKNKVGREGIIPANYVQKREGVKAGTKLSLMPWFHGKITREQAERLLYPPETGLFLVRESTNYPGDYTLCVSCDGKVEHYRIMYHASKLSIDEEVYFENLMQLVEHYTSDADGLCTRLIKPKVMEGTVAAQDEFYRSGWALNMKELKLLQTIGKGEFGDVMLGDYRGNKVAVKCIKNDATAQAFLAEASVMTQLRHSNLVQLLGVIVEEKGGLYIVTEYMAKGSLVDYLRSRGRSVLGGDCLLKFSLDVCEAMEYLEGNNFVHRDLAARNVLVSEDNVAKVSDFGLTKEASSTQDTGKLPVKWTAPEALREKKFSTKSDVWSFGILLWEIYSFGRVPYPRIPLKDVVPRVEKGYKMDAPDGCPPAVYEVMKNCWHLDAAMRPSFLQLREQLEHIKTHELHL
Sequence of Rho-associated protein kinase 2 (Homo sapiens) (O75116 whole entry, looked up): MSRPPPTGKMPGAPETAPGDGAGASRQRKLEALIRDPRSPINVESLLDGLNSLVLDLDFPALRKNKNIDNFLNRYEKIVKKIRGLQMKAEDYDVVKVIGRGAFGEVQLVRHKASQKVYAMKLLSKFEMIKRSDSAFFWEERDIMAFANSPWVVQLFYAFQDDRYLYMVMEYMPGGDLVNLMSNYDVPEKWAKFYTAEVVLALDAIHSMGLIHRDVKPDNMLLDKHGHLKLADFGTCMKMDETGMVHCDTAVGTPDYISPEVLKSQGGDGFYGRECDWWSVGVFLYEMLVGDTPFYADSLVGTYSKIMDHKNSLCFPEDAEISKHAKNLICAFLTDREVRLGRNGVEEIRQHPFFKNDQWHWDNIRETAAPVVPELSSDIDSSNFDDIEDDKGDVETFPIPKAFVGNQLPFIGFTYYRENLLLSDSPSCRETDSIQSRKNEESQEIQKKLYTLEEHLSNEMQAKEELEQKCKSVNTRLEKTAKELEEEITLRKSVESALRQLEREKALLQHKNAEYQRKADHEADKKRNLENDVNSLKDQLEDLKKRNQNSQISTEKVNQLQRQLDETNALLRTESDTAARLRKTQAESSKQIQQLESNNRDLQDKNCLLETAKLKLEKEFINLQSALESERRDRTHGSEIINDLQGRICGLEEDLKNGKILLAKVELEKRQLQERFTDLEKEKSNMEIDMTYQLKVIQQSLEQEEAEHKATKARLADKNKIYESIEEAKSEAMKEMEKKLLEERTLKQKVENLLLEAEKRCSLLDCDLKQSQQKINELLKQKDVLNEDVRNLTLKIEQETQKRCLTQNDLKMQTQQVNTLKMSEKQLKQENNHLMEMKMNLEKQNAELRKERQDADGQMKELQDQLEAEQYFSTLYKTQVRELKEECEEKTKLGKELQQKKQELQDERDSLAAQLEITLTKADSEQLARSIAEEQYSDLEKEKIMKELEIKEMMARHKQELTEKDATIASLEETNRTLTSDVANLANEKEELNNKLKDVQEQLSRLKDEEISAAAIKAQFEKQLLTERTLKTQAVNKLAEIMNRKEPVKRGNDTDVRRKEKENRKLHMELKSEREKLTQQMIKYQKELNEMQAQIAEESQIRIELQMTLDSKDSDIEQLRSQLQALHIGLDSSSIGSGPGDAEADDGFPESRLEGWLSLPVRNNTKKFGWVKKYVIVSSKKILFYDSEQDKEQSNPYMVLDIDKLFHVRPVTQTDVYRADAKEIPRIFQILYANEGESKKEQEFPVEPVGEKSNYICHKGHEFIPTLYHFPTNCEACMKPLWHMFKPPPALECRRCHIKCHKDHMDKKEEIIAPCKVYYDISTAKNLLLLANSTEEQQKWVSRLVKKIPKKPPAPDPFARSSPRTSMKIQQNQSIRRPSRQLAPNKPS
Sequence of Dual specificity mitogen-activated protein kinase kinase 1 (Homo sapiens) (Q02750 whole entry): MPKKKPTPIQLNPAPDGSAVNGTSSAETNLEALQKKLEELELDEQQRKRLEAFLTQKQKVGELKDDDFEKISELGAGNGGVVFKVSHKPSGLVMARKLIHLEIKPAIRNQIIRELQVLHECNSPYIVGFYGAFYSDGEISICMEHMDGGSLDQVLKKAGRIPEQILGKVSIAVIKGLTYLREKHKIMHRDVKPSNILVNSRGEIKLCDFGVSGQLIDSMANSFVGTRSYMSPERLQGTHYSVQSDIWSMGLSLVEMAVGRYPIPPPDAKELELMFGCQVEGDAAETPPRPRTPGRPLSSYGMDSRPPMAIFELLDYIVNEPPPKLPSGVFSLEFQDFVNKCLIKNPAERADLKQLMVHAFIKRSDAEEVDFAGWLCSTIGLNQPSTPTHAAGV
Sequence of Mitogen-activated protein kinase 8 (Homo sapiens) (P45983 whole entry): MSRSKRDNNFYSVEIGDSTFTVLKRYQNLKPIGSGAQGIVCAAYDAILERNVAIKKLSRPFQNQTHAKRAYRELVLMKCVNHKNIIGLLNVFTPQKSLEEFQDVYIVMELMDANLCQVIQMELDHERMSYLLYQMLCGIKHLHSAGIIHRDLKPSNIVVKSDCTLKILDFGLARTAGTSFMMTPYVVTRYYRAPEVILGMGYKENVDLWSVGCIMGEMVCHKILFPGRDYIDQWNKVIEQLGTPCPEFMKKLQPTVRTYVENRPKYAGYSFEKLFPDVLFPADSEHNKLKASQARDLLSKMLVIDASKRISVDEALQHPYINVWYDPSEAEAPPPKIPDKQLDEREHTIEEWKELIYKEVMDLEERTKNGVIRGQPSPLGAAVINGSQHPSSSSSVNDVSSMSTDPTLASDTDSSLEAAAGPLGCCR
Sequence of Glycogen synthase kinase-3 beta (Homo sapiens) (P49841 whole entry, looked up): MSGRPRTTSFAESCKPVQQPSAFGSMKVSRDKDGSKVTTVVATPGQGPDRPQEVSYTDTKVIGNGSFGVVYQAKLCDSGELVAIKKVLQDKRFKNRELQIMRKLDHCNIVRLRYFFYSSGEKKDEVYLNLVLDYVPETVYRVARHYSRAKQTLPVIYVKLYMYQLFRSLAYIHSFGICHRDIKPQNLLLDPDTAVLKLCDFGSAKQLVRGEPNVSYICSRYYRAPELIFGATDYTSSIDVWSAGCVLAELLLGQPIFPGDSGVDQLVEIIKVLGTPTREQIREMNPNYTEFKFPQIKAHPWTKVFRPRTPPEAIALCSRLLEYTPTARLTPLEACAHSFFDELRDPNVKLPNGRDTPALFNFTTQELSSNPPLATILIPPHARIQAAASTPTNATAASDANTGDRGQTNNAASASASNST

Regarding `CCNCc1ccc(N/C(=C2\C(=O)Nc3cc(C(=O)N(C)CC)ccc32)c2ccccc2)cc1`, the residual activity in [1] amounted to 91%; in [2] it was 92%; in test [3], 96%; in test [4] it was 88%; in [5] it was 86%; in test [6], 78%. The residual activity was 90% in [7]; 70% in test [8]; 83% in [9]; 85% in test [10]; 81% in [11]; 80% in [12]. Also, the residual activity in test [13] came to 72%; in test [14], 50%; in test [15], 86%; in [16], 85%; in test [17], 56%; in test [18], 87%.
As for `CCN(C)C(=O)c1ccc2c(c1)NC(=O)/C2=C(\Nc1ccc(CN2CCCCC2)cc1)c1ccccc1`, the residual activity was found to be 89% in [1]; 97% in [2]; 96% in test [3]; 150% in test [4]; 98% in [5]; 72% in [6]. The residual activity was 108% in test [7]; 87% in test [8]; 92% in test [9]; 74% in test [10]; 80% in [11]; 88% in test [12]. Moreover, the residual activity is 96% in test [13]; 47% in [14]; 88% in [15]; 88% in test [16]; 82% in test [17]; 110% in test [18].
As for `CN(C)C(=O)c1ccc2c(c1)/C(=C(/Nc1ccc(CN3CCCCC3)cc1)c1ccccc1)C(=O)N2`, the residual activity in test [1] was determined as 90%; in [2], 93%; in test [3], 69%; in test [4], 19%; in [5], 73%; in test [6], 74%. The residual activity stood at 95% in [7]; 59% in [8]; 36% in test [9]; 8% in test [10]; 2% in test [11]; 79% in test [12]. In addition, the residual activity turned out to be 81% in [13]; 4% in [14]; 45% in test [15]; 28% in test [16]; 5% in [17]; 39% in test [18].
For the compound `CCNC(=O)c1ccc2c(c1)NC(=O)/C2=C(\Nc1ccc(N(CCN(C)C)S(C)(=O)=O)cc1)c1ccccc1`, the residual activity in [1] amounted to 105%; in [2], 90%; in test [3], 75%; in test [4], 101%; in [5], 94%; in test [6] it was 83%. Moreover, the residual activity in test [7] worked out at 100%; in test [8] it was 67%; in [9], 105%; in [10], 51%; in [11], 74%; in test [12] it was 88%. Besides, the residual activity in test [13] was found to be 70%; in [14] it was 80%; in test [15], 96%; in test [16], 100%; in test [17] it was 124%; in [18] it was 100%.
With `O=C1Nc2ccccc2/C1=C(/Nc1ccc(CN2CCCCC2)cc1)c1ccccc1`, the residual activity in test [1] is 8%; in test [2], 88%; in test [3], 12%; in [4] it was 5%; in [5], 90%; in [6], 32%. The residual activity in test [7] was 17%; in test [8], 38%; in [9], 8%; in test [10] it was 6%; in [11], 4%; in [12] it was 54%. In addition, the residual activity was 39% in test [13]; 0% in test [14]; 18% in test [15]; 29% in test [16]; 1% in test [17]; 38% in test [18].
`CCNC(=O)c1ccc2c(c1)NC(=O)/C2=C(\Nc1ccc(CN(C)C)cc1)c1ccccc1`: the residual activity in test [1] was found to be 99%; in [2], 106%; in test [3], 90%; in [4], 102%; in test [5], 95%; in [6] it was 96%. The residual activity worked out at 102% in test [7]; 96% in test [8]; 104% in [9]; 84% in [10]; 85% in [11]; 95% in test [12]. In addition, the residual activity was 98% in test [13]; 93% in test [14]; 105% in [15]; 89% in test [16]; 114% in test [17]; 103% in test [18].
